The values below come from PubChem BioAssay AID256 (DTP/NCI, 2004).

This assay concerns CD2F1 mice, L1210 leukemia ip, survival T/C. Nature of the assay: NCI In Vivo Anticancer Drug Screen. Data for tumor model L1210 Leukemia (intraperitoneal) in CD2F1 (CDF1) mice. The following applies: higher = longer survival. The gist of the method:
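Vehicle-treated tumor-bearing mice served as controls (C) for compound-treated mice (T). Reported figure is T divided by C.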

[1] abbreviates: endpoint: mean survival time, dose: 100.0 mg/kg/injection, schedule: Q01DX001 (ip), vehicle: saline with Tween-80.
Setting [2] is: endpoint: mean survival time, dose: 200.0 mg/kg/injection, schedule: Q01DX001 (ip), vehicle: saline with Tween-80.
The mark [3] stands for this setting: endpoint: mean survival time, dose: 400.0 mg/kg/injection, schedule: Q01DX001 (ip), vehicle: saline with Tween-80.

Molecules are shown by their SMILES. Where “and” joins values, the source holds several entries; their conditions need not be identical. Equal values may be shown once. Inconclusive results and toxic doses are left out.

For `COc1cc(OC)c(/C=C/c2cc3c4ccccc4ccc3[n+](C)c2)c(OC)c1`, the T/C runs as follows: (endpoint: mean survival time, dose: 12.5 mg/kg/injection, schedule: Q01DX001 (ip), vehicle: saline with Tween-80) 104 % of control; (endpoint: mean survival time, dose: 25.0 mg/kg/injection, schedule: Q01DX001 (ip), vehicle: saline with Tween-80) 112 % of control; (endpoint: mean survival time, dose: 50.0 mg/kg/injection, schedule: Q01DX001 (ip), vehicle: saline with Tween-80) 101 % of control; under setting [1], 94 % of control.
On to `CC(C)(C)C1=CC(=O)C(C(C)(C)C)=CC1=O`, for which the T/C is, setting by setting: under setting [1], 97 % of control; under setting [2], 103 % of control.
Take `N#Cc1cn(C2OC(CO)C3OC32)c2ncnc(NC(=O)c3ccccc3)c12` (configuration not stated): the T/C was 103 % of control (endpoint: mean survival time, dose: 25.0 mg/kg/injection, schedule: Q01DX005 (ip), vehicle: distilled water + Tween-80); 104 % of control (endpoint: mean survival time, dose: 50.0 mg/kg/injection, schedule: Q01DX005 (ip), vehicle: distilled water + Tween-80); 114 % of control (endpoint: mean survival time, dose: 100.0 mg/kg/injection, schedule: Q01DX005 (ip), vehicle: distilled water + Tween-80); 110 % of control (endpoint: mean survival time, dose: 200.0 mg/kg/injection, schedule: Q01DX005 (ip), vehicle: distilled water + Tween-80).
Take `CC(=O)NO`: the T/C (endpoint: median survival time, dose: 25.0 mg/kg/injection, schedule: Q03HX024 (ip), vehicle: water) was 104 % of control; the T/C (endpoint: median survival time, dose: 50.0 mg/kg/injection, schedule: Q01DX009 (ip), vehicle: water) is 101 % of control; the T/C (endpoint: median survival time, dose: 50.0 mg/kg/injection, schedule: Q03HX024 (ip), vehicle: water) was 105 % of control; the T/C (endpoint: median survival time, dose: 62.5 mg/kg/injection, schedule: Q01DX009 (ip), vehicle: saline) was 111 % of control; the T/C (endpoint: median survival time, dose: 62.5 mg/kg/injection, schedule: Q01DX009 (ip), vehicle: water) is 99 % of control; the T/C (endpoint: median survival time, dose: 100.0 mg/kg/injection, schedule: Q01DX009 (ip), vehicle: water) is 105 % of control. Also, the T/C (endpoint: median survival time, dose: 100.0 mg/kg/injection, schedule: Q03HX024 (ip), vehicle: water) was 114 % of control; the T/C (endpoint: median survival time, dose: 125.0 mg/kg/injection, schedule: Q01DX009 (ip), vehicle: saline) was 111 % of control; the T/C (endpoint: median survival time, dose: 125.0 mg/kg/injection, schedule: Q01DX009 (ip), vehicle: water) is 101 % of control; the T/C (endpoint: median survival time, dose: 250.0 mg/kg/injection, schedule: Q01DX009 (ip), vehicle: saline) is 118 % of control; the T/C (endpoint: median survival time, dose: 250.0 mg/kg/injection, schedule: Q01DX009 (ip), vehicle: water) was 111 % of control; the T/C (endpoint: median survival time, dose: 400.0 mg/kg/injection, schedule: Q01DX009 (ip), vehicle: water) was 152 % of control. For the same compound, the T/C runs as follows: (endpoint: median survival time, dose: 400.0 mg/kg/injection, schedule: Q03HX024 (ip), vehicle: water) 241 % of control; (endpoint: median survival time, dose: 500.0 mg/kg/injection, schedule: Q01DX009 (ip), vehicle: saline) 152 % of control; (endpoint: median survival time, dose: 800.0 mg/kg/injection, schedule: Q01DX009 (ip), vehicle: water) 173 % of control and 183 % of control; (endpoint: median survival time, dose: 1000.0 mg/kg/injection, schedule: Q01DX009 (ip), vehicle: saline) 172 % of control.
With `O=C(O)c1ccc([N+](=O)[O-])cc1[N+](=O)[O-]`, the T/C is, setting by setting: under setting [1], 87 % of control; under setting [2], 97 % of control; under setting [3], 91 % of control.
Take `CN(C)P(=O)(OCCCOCc1ccccc1)N(CCCl)CCCl` (configuration not stated): the T/C is, setting by setting: (endpoint: mean survival time, dose: 25.0 mg/kg/injection, schedule: Q01DX001 (ip), vehicle: other) 93 % of control; (endpoint: mean survival time, dose: 50.0 mg/kg/injection, schedule: Q01DX001 (ip), vehicle: other) 101 % of control; (endpoint: mean survival time, dose: 100.0 mg/kg/injection, schedule: Q01DX001 (ip), vehicle: other) 91 % of control; (endpoint: mean survival time, dose: 200.0 mg/kg/injection, schedule: Q01DX001 (ip), vehicle: other) 90 % of control; (endpoint: mean survival time, dose: 400.0 mg/kg/injection, schedule: Q01DX001 (ip), vehicle: other) 87 % of control.
On to `O=C(O)CCOc1cc(F)c(Cl)cc1Cl`, for which the T/C by setting is: (endpoint: mean survival time, dose: 100.0 mg/kg/injection, schedule: Q04DX002 (ip), vehicle: saline with Tween-80) 94 % of control; (endpoint: mean survival time, dose: 200.0 mg/kg/injection, schedule: Q04DX002 (ip), vehicle: saline with Tween-80) 86 % of control; (endpoint: mean survival time, dose: 400.0 mg/kg/injection, schedule: Q04DX002 (ip), vehicle: saline with Tween-80) 86 % of control.
As to `CCOC(=O)CCC(NC(=O)c1ccc(N(CC)Cc2cnc3nc(N)nc(N)c3n2)cc1)C(=O)OCC` (configuration not stated), the T/C (endpoint: mean survival time, dose: 1.56 mg/kg/injection, schedule: Q01DX009 (ip), vehicle: Klucel (hydroxypropylcellulose) (HPC)) is 152 % of control.
Regarding `Cc1cc(NCCCN(C)C)c2ccc3c(ccc4c(NCCCN(C)C)cc(C)nc43)c2n1`, the T/C (endpoint: median survival time, dose: 0.38 mg/kg/injection, schedule: Q01DX009 (ip), vehicle: saline) is 95 % of control; the T/C (endpoint: median survival time, dose: 0.75 mg/kg/injection, schedule: Q01DX009 (ip), vehicle: saline) was 93 % of control; the T/C (endpoint: median survival time, dose: 1.5 mg/kg/injection, schedule: Q01DX009 (ip), vehicle: saline) is 113 % of control; the T/C (endpoint: median survival time, dose: 3.0 mg/kg/injection, schedule: Q01DX009 (ip), vehicle: saline) is 110 % of control.
Consider `CCC1c2ccc3cc(O)ccc3c2CCC1(C)C(=O)OC` (configuration not stated), for which the T/C is 96 % of control (endpoint: mean survival time, dose: 50.0 mg/kg/injection, schedule: Q01DX001 (ip), vehicle: Klucel (hydroxypropylcellulose) (HPC)); 96 % of control (endpoint: mean survival time, dose: 100.0 mg/kg/injection, schedule: Q01DX001 (ip), vehicle: Klucel (hydroxypropylcellulose) (HPC)); 104 % of control (endpoint: mean survival time, dose: 200.0 mg/kg/injection, schedule: Q01DX001 (ip), vehicle: Klucel (hydroxypropylcellulose) (HPC)).
Take `CC(C)(C)CC(C)(C)Nc1nc(NC(C)(C)CC(C)(C)C)nc(NC(C)(C)CC(C)(C)C)n1`: the T/C (endpoint: mean survival time, dose: 12.5 mg/kg/injection, schedule: Q01DX009 (ip), vehicle: saline with Tween-80) is 101 % of control; the T/C (endpoint: mean survival time, dose: 25.0 mg/kg/injection, schedule: Q01DX009 (ip), vehicle: saline with Tween-80) is 95 % of control; the T/C (endpoint: mean survival time, dose: 50.0 mg/kg/injection, schedule: Q01DX009 (ip), vehicle: saline with Tween-80) is 97 % of control.
As to `[N-]=[N+]=C1C(=O)NC(=O)N2C3CC(O)C(COC12)O3` (configuration not stated), the T/C (endpoint: mean survival time, dose: 75.0 mg/kg/injection, schedule: Q01DX009 (ip), vehicle: saline with Tween-80) was 106 % of control; the T/C (endpoint: mean survival time, dose: 100.0 mg/kg/injection, schedule: Q01DX009 (ip), vehicle: saline sonified) is 114 % of control; the T/C (endpoint: mean survival time, dose: 100.0 mg/kg/injection, schedule: Q04DX003 (ip), vehicle: saline with Tween-80) was 101 % of control; the T/C (endpoint: mean survival time, dose: 150.0 mg/kg/injection, schedule: Q01DX009 (ip), vehicle: saline with Tween-80) was 108 % of control; the T/C (endpoint: mean survival time, dose: 200.0 mg/kg/injection, schedule: Q01DX009 (ip), vehicle: saline sonified) is 120 % of control; the T/C (endpoint: mean survival time, dose: 200.0 mg/kg/injection, schedule: Q04DX003 (ip), vehicle: saline with Tween-80) was 104 % of control. For the same compound, the T/C (endpoint: mean survival time, dose: 300.0 mg/kg/injection, schedule: Q01DX009 (ip), vehicle: saline with Tween-80) is 112 % of control; the T/C (endpoint: mean survival time, dose: 400.0 mg/kg/injection, schedule: Q01DX009 (ip), vehicle: saline sonified) was 121 % of control; the T/C (endpoint: mean survival time, dose: 400.0 mg/kg/injection, schedule: Q04DX003 (ip), vehicle: saline with Tween-80) is 108 % of control.
As to `NC(=S)c1csc(CCNC(=O)c2ccccc2)n1`, the T/C is 100 % of control under setting [1]; 98 % of control (endpoint: mean survival time, dose: 100.0 mg/kg/injection, schedule: Q01DX009 (ip), vehicle: saline with Tween-80); 96 % of control (endpoint: mean survival time, dose: 100.0 mg/kg/injection, schedule: Q04DX003 (ip), vehicle: saline); 97 % of control under setting [2]; 98 % of control (endpoint: mean survival time, dose: 200.0 mg/kg/injection, schedule: Q01DX009 (ip), vehicle: saline with Tween-80); 89 % of control (endpoint: mean survival time, dose: 200.0 mg/kg/injection, schedule: Q04DX003 (ip), vehicle: saline). Moreover, the T/C was 97 % of control under setting [3]; 100 % of control (endpoint: mean survival time, dose: 400.0 mg/kg/injection, schedule: Q01DX009 (ip), vehicle: saline with Tween-80); 93 % of control (endpoint: mean survival time, dose: 400.0 mg/kg/injection, schedule: Q04DX003 (ip), vehicle: saline).
On to `CCOC1=Cc2c(oc3c(C(C)(C)C)cc(OCC)cc23)OC(C(C)(C)C)=C1`, for which the T/C is 95 % of control and 102 % of control (endpoint: median survival time, dose: 1.56 mg/kg/injection, schedule: Q01DX009 (ip), vehicle: saline with Tween-80); 95 % of control and 102 % of control (endpoint: median survival time, dose: 3.12 mg/kg/injection, schedule: Q01DX009 (ip), vehicle: saline with Tween-80); 101 % of control and 102 % of control (endpoint: median survival time, dose: 6.25 mg/kg/injection, schedule: Q01DX009 (ip), vehicle: saline with Tween-80); 98 % of control and 103 % of control (endpoint: median survival time, dose: 12.5 mg/kg/injection, schedule: Q01DX009 (ip), vehicle: saline with Tween-80); 98 % of control and 102 % of control (endpoint: median survival time, dose: 25.0 mg/kg/injection, schedule: Q01DX009 (ip), vehicle: saline with Tween-80); 114 % of control and 98 % of control (endpoint: median survival time, dose: 50.0 mg/kg/injection, schedule: Q01DX009 (ip), vehicle: saline with Tween-80).
